Experiments:
human TGR5 (h-TGR5) = molecular target: T1, human TGR5 (h-TGR5) (Homo sapiens, UniProt Q8TDU6); experiment: TGR5/CRE-Luciferiase Assay (HEK 293 hTGR5/CRE-Luc cells); format: cell-based; settings: h-TGR5 CRE-Luc EC50, Table 1; read-out: CRE-Luc (EC50)
T1 construct: expressed in transfected cells
T1 sequence (Q8TDU6 1-330): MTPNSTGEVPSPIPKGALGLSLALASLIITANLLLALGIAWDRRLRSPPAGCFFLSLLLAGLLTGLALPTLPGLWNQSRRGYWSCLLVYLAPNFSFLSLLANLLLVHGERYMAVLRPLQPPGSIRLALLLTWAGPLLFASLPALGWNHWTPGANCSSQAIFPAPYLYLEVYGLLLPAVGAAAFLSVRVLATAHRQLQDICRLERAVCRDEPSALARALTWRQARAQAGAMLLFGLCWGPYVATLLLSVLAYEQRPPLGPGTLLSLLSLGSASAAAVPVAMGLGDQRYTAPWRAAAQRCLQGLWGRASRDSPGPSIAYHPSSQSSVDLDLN
Summary of the method: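 HEK293 cells stably carrying hTGR5 and a CRE-luciferase reporter were exposed to serially diluted compounds (diluted in DMEM with 5% DMSO) for 6 h. Cells were then lysed in luciferase buffer, luminescence was read, and EC50 values were derived from dose-response curves.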

h-TGR5 = molecular target: T2, h-TGR5 (Homo sapiens, UniProt Q8TDU6); experiment: TGR5 cAMP Assay using Cisbio cAMP Dynamic2 htrf kit (hTGR5CRE-luc HEK 293 cells); format: cell-based; settings: h-TGR5 cAMP EC50, Table 1; read-out: cAMP (EC50)
T2 construct: expressed in transfected cells
T2 sequence (Q8TDU6 1-330): T1 sequence (Q8TDU6 1-330)
Summary of the method: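 […], 4000 hTGR5CRE-luc HEK 293 cells per well, with 0.5 mM IBMX and d2-cAMP, were incubated 30 min at room temperature with compounds in 8-point half-log series, in quadruplicate.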

Row | SMILES | EC50 (human TGR5 (h-TGR5)) | EC50 (h-TGR5)
1 | COc1cc(C(C)(C)c2cnc(SCc3ccc(S(=O)(=O)NC(=O)NN4CCOCC4)cc3Cl)n2-c2ccc(F)cc2)ccc1Cl [3-chloro-4-({[5-{1-[4-chloro-3-(methyloxy)phenyl]-1-methylethyl}-1-(4-fluorophenyl)-1H-imidazol-2-yl]thio}methyl)-N-[(morpholin-4-ylamino)carbonyl]benzenesulfonamide] | 100 to 1000 nM | < 100 nM
2 | CCCNC(=O)NS(=O)(=O)c1ccc(CSc2ncc(C(C)(C)c3ccc(Cl)c(OC)c3)n2-c2ccc(F)cc2)c(Cl)c1 [3-chloro-4-({[5-{1-[4-chloro-3-(methyloxy)phenyl]-1-methylethyl}-1-(4-fluorophenyl)-1H-imidazol-2-yl]thio}methyl)-N-[(propylamino)carbonyl]benzenesulfonamide] | < 100 nM | < 100 nM
3 | COc1cc(C(C)(C)c2cnc(SCc3ccc(S(=O)(=O)NC(=O)NN4CCCC4)cc3Cl)n2-c2ccc(F)cc2)ccc1Cl [3-chloro-4-({[5-{1-[4-chloro-3-(methyloxy)phenyl]-1-methylethyl}-1-(4-fluorophenyl)-1H-imidazol-2-yl]thio}methyl)-N-[(pyrrolidin-1-ylamino)carbonyl]benzenesulfonamide] | 100 to 1000 nM | 100 to 1000 nM
4 | COC[C@H]1CCCN1NC(=O)NS(=O)(=O)c1ccc(CSc2ncc(C(C)(C)c3ccc(Cl)c(OC)c3)n2-c2ccc(F)cc2)c(Cl)c1 [3-chloro-4-({[5-{1-[4-chloro-3-(methyloxy)phenyl]-1-methylethyl}-1-(4-fluorophenyl)-1H-imidazol-2-yl]thio}methyl)-N-[({(2R)-2-[(methyloxy)methyl]pyrrolidin-1-yl}amino)carbonyl]benzenesulfonamide] | 100 to 1000 nM | 100 to 1000 nM
5 | COc1cc(C(C)(C)c2cnc(SCc3ccc(S(=O)(=O)NC(=O)NC(C)C)cc3Cl)n2-c2ccc(F)cc2)ccc1Cl [3-chloro-4-({[5-{1-[4-chloro-3-(methyloxy)phenyl]-1-methylethyl}-1-(4-fluorophenyl)-1H-imidazol-2-yl]thio}methyl)-N-{[(1-methylethyl)amino]carbonyl} benzenesulfonamide] | 100 to 1000 nM | < 100 nM
6 | COc1cc(C(C)(C)c2cnc(SCc3ccc(S(=O)(=O)NC(=O)NCC(C)(C)O)cc3Cl)n2-c2ccc(F)cc2)ccc1Cl [3-chloro-4-({[5-{1-[4-chloro-3-(methyloxy)phenyl]-1-methylethyl}-1-(4-fluorophenyl)-1H-imidazol-2-yl]thio}methyl)-N-{[(2-hydroxy-2-methylpropyl)amino]carbonyl} benzenesulfonamide] | 100 to 1000 nM | 100 to 1000 nM
7 | COc1cc(C(C)(C)c2cnc(SCc3ccc(S(=O)(=O)NC(=O)NN4CCN(C)CC4)cc3Cl)n2-c2ccc(F)cc2)ccc1Cl [3-chloro-4-({[5-{1-[4-chloro-3-(methyloxy)phenyl]-1-methylethyl}-1-(4-fluorophenyl)-1H-imidazol-2-yl]thio}methyl)-N-{[(4-methylpiperazin-1-yl)amino]carbonyl} benzenesulfonamide] | 100 to 1000 nM | 100 to 1000 nM
8 | COc1cc(C(C)(C)c2c(C)nc(SCc3c(F)cc(C(=O)O)cc3Cl)n2-c2ccc(F)cc2)ccc1Cl [3-chloro-4-({[5-{1-[4-chloro-3-(methyloxy)phenyl]-1-methylethyl}-1-(4-fluorophenyl)-4-methyl-1H-imidazol-2-yl]thio}methyl)-5-fluorobenzoic acid] | 100 to 1000 nM | < 100 nM
9 | COc1cc(C(C)(C)c2cnc(SCc3ccc(S(=O)(=O)NC(=O)NN4CCCC4)cc3Cl)n2-c2cc(C)c(F)cn2)ccc1Cl [3-chloro-4-({[5-{1-[4-chloro-3-(methyloxy)phenyl]-1-methylethyl}-1-(5-fluoro-4-methylpyridin-2-yl)-1H-imidazol-2-yl]thio}methyl)-N-[(pyrrolidin-1-ylamino)carbonyl]benzenesulfonamide] | 100 to 1000 nM | 1000 to 10000 nM
10 | COc1cc(C(C)(C)c2cnc(SCc3c(F)cc(C(=O)O)cc3Cl)n2-c2ccc(F)cn2)ccc1Cl [3-chloro-4-({[5-{1-[4-chloro-3-(methyloxy)phenyl]-1-methylethyl}-1-(5-fluoropyridin-2-yl)-1H-imidazol-2-yl]thio}methyl)-5-fluorobenzoic acid] | < 100 nM | < 100 nM
11 | COc1cc(C(C)(C)c2cnc(SCc3ccc(S(=O)(=O)NC(=O)NN4CCCC4)cc3Cl)n2-c2ccc(F)cn2)ccc1Cl [3-chloro-4-({[5-{1-[4-chloro-3-(methyloxy)phenyl]-1-methylethyl}-1-(5-fluoropyridin-2-yl)-1H-imidazol-2-yl]thio}methyl)-N-[(pyrrolidin-1-ylamino)carbonyl]benzenesulfonamide] | 100 to 1000 nM | 100 to 1000 nM
12 | COc1cc(C(C)(C)c2cnc(SCc3ccc(S(=O)(=O)NC(=O)NN4CCCC4)cc3Cl)n2-c2ccc(F)cc2)ccc1F [3-chloro-4-({[5-{1-[4-fluoro-3-(methyloxy)phenyl]-1-methylethyl}-1-(4-fluorophenyl)-1H-imidazol-2-yl]thio}methyl)-N-[(pyrrolidin-1-ylamino)carbonyl]benzenesulfonamide] | 100 to 1000 nM | 100 to 1000 nM
13 | CC(C)(c1ccc(F)c(F)c1)c1cnc(SCc2ccc(S(=O)(=O)NC(=O)NN3CCCC3)cc2Cl)n1-c1ccc(F)cc1F [3-chloro-4-[({1-(2,4-difluorophenyl)-5-[1-(3,4-difluorophenyl)-1-methylethyl]-1H-imidazol-2-yl}thio)methyl]-N-[(pyrrolidin-1-ylamino)carbonyl]benzenesulfonamide] | 100 to 1000 nM | 1000 to 10000 nM
14 | CC(C)(c1ccc(F)c(F)c1)c1cnc(SCc2ccc(S(=O)(=O)NC(=O)NN3CCCC3)cc2Cl)n1-c1ccc(F)c(F)c1 [3-chloro-4-[({1-(3,4-difluorophenyl)-5-[1-(3,4-difluorophenyl)-1-methylethyl]-1H-imidazol-2-yl}thio)methyl]-N-[(pyrrolidin-1-ylamino)carbonyl]benzenesulfonamide] | 100 to 1000 nM | 1000 to 10000 nM
15 | CC(C)(c1ccc(F)c(F)c1)c1cnc(SCc2ccc(S(=O)(=O)NC(=O)NN3CCCC3)cc2Cl)n1-c1ccc(F)c(Cl)c1 [3-chloro-4-[({1-(3-chloro-4-fluorophenyl)-5-[1-(3,4-difluorophenyl)-1-methylethyl]-1H-imidazol-2-yl}thio)methyl]-N-[(pyrrolidin-1-ylamino)carbonyl]benzenesulfonamide] | 100 to 1000 nM | 1000 to 10000 nM
16 | CC(C)(c1ccc(F)cc1)c1cnc(SCc2ccc(S(=O)(=O)NC(=O)NN3CCCC3)cc2Cl)n1-c1ccc(F)c(Cl)c1 [3-chloro-4-[({1-(3-chloro-4-fluorophenyl)-5-[1-(4-fluorophenyl)-1-methylethyl]-1H-imidazol-2-yl}thio)methyl]-N-[(pyrrolidin-1-ylamino)carbonyl]benzenesulfonamide] | 100 to 1000 nM | 1000 to 10000 nM
17 | CC(C)(c1ccc(Cl)c(Cl)c1)c1cnc(SCc2ccc(S(=O)(=O)NC(=O)NN3CCCC3)cc2Cl)n1-c1ncc(F)cc1F [3-chloro-4-[({5-[1-(3,4-dichlorophenyl)-1-methylethyl]-1-(3,5-difluoropyridin-2-yl)-1H-imidazol-2-yl}thio)methyl]-N-[(pyrrolidin-1-ylamino)carbonyl]benzenesulfonamide] | 100 to 1000 nM | 1000 to 10000 nM
18 | CC(C)(c1ccc(Cl)c(Cl)c1)c1cnc(SCc2c(F)cc(C(=O)O)cc2Cl)n1-c1ccc(F)cc1 [3-chloro-4-[({5-[1-(3,4-dichlorophenyl)-1-methylethyl]-1-(4-fluorophenyl)-1H-imidazol-2-yl}thio)methyl]-5-fluorobenzoic acid] | < 100 nM | 100 to 1000 nM
19 | CC(C)(c1ccc(Cl)c(Cl)c1)c1cnc(SCc2ccc(S(=O)(=O)NC(=O)NN3CCCC3)cc2Cl)n1-c1ccc(F)cc1 [3-chloro-4-[({5-[1-(3,4-dichlorophenyl)-1-methylethyl]-1-(4-fluorophenyl)-1H-imidazol-2-yl}thio)methyl]-N-[(pyrrolidin-1-ylamino)carbonyl]benzenesulfonamide] | 100 to 1000 nM | 1000 to 10000 nM
20 | CC(C)NC(=O)NS(=O)(=O)c1ccc(CSc2ncc(C(C)(C)c3ccc(Cl)c(Cl)c3)n2-c2ccc(F)cc2)c(Cl)c1 [3-chloro-4-[({5-[1-(3,4-dichlorophenyl)-1-methylethyl]-1-(4-fluorophenyl)-1H-imidazol-2-yl}thio)methyl]-N-{[(1-methylethyl)amino]carbonyl}benzenesulfonamide] | 100 to 1000 nM | 100 to 1000 nM
21 | CC(C)(c1ccc(Cl)c(Cl)c1)c1cnc(SCc2ccc(S(N)(=O)=O)cc2Cl)n1-c1ccc(F)cc1 [3-chloro-4-[({5-[1-(3,4-dichlorophenyl)-1-methylethyl]-1-(4-fluorophenyl)-1H-imidazol-2-yl}thio)methyl]benzenesulfonamide] | 100 to 1000 nM | 100 to 1000 nM
22 | CC(C)(c1ccc(Cl)c(Cl)c1)c1cnc(SCc2ccc(S(=O)(=O)O)cc2Cl)n1-c1ccc(F)cc1 [3-chloro-4-[({5-[1-(3,4-dichlorophenyl)-1-methylethyl]-1-(4-fluorophenyl)-1H-imidazol-2-yl}thio)methyl]benzenesulfonic acid] | 100 to 1000 nM | 100 to 1000 nM

From patent US8785488B2 (Exelixis Patent Company LLC, priority 2009, dated 2014)
